Measurements as given in patent publication US11999712B1, “2-(benzo[b]thiophen-3-yl)-1-butyl-4,5-diphenyl-1H-imidazole as an anti-inflammatory and anti-microbial compound” (KING FAISAL UNIVERSITY, priority 2023, dated 2024).

Assays:
Candida albicans = test: antimicrobial activity, agar dilution method; format: cell-based; conditions: after 10, 20, 40 and 60 min at all dilutions 1:100, 1:200, 1:400, 1:800
Method: (§1) The antibacterial properties of the synthesized compounds were studied by the method of agar dilution. Test solutions of each compound was prepared in a concentration of 1% using dimethylformamide as a solvent. Then the test solutions were diluted in a physiological solution to obtain the final experimental dilutions of 1:100, 1:200, 1:400, and 1:800. The effect of these substances was compared with furacillin in a controllable study. The testing microbes used were gram positive bacteria St. Aereus, gram negative bacteria E. Coli, and Ps. aeruginosa and Candida albicans fungi. The experiments used for this survey were a meat-pentonlu agar (EPA) for cultivation of bacteria and a Saburo environment for fungi. Each experiment used 1 mL of test solution on each plate for 500 min. Next, 2 drops of emulsified test solution with microbes feel were added. All experimental samples were taken from the agar after 10, 20, 40, 60 minutes in the environment on the basis of Patrk planted. Bacteria were cultivated at a temperature of 37° ° C. for 1 day and the mushroom was kept in a thermostat for […] at a temperature of 28° C. Then results were checked. Results for the control and the antimicrobial activity for the synthesized compounds are listed in Table 1 below. […]

E. Coli = test: antimicrobial activity, agar dilution method; format: cell-based; conditions: after 10, 20, 40 and 60 min at all dilutions 1:100, 1:200, 1:400, 1:800
Method: as §1

Ps. aeruginosa = test: antimicrobial activity, agar dilution method; format: cell-based; conditions: after 10, 20, 40 and 60 min at all dilutions 1:100, 1:200, 1:400, 1:800
Method: as §1

St. Aereus = test: antimicrobial activity, agar dilution method; format: cell-based; conditions: after 10, 20, 40 and 60 min at all dilutions 1:100, 1:200, 1:400, 1:800
Method: as §1

melting point [°C] | SMILES | inhibition activity (Candida albicans) | inhibition activity (E. Coli) | inhibition activity (Ps. aeruginosa) | inhibition activity (St. Aereus)
151 to 153 | CCCCn1c(-c2csc3ccccc23)nc(-c2ccccc2)c1-c1ccccc1 [2-(Benzo[b]thiophen-3-yl)-1-butyl-4,5-diphenyl-1H-imidazole] | most inhibition activity | most inhibition activity | most inhibition activity | most inhibition activity
– | CN(C)CCCn1c(-c2cccnc2)nc(-c2ccccc2)c1-c1ccccc1 [3-(4,5-Diphenyl-2-(pyridin-3-yl)-1H-imidazol-1-yl)-N,N-dimethylpropan-1-amine] | highest inhibition activity | highest inhibition activity | highest inhibition activity | highest inhibition activity
